Source: PMC12794062, “Repositioning a Human Kinase Platelet-Derived Growth Factor Receptor Alpha Type II Inhibitor for Malaria and Inhibition of Hemozoin Formation” (ACS Medicinal Chemistry Letters, 2025)
“And” between values parts separate entries of the source, which are not always exact repeats. Identical values can stand only once. Like-named read-outs stand apart in the source and are kept apart here.

Key:
[1] = test system: β-hematin formation; test: Cell-free β-hematin inhibition assay (NP-40 detergent-based); type: biochemical; conditions: 2 independent experiments, read-out: βH IC50 ± SD
[2] = test system: heme species (free heme, hemozoin) in NF54 parasites; test: Cellular heme fractionation assay; type: cell-based, Plasmodium falciparum; conditions: 0.5× to 3× IC50, NF54 parasites
[3] = test system: P. falciparum NF54; test: In vitro asexual blood stage antiplasmodium activity (pLDH assay), drug sensitive NF54 strain; conditions: mean ± SD, n ≥ 2 independent experiments
[4] = test system: P. falciparum K1; test: In vitro asexual blood stage antiplasmodium activity (pLDH assay), multidrug-resistant K1 strain; conditions: mean ± SD, n ≥ 2 independent experiments
[5] = test system: P. falciparum Dd2; test: In vitro asexual blood stage antiplasmodium activity (pLDH assay), multidrug-resistant Dd2 strain; conditions: Plasmodium falciparum, DD2, read-out: Pf IC50 ± SD Dd2, asexual blood stage; mean ± SD, n ≥ 2 independent experiments
[6] = Solubility, miniaturised shake flask method, HPLC-DAD; type: physicochemical; conditions: aqueous solution, 25 °C, aqueous buffer, thermodynamic from solid; pH 6.5; footnote: thermodynamic solubility, title and text: kinetic
[7] = In vitro microsomal metabolic stability, mouse; type: in vitro ADME; conditions: male, CD1, mouse, mouse liver microsomes, pH 7.4; read-out: CLint,app (m)
[8] = In vitro microsomal metabolic stability, human; type: in vitro ADME; conditions: both sexes, human liver microsomes, pH 7.4, read-out: CLint,app (h)
[9] = In vitro cytotoxicity, MTT assay; conditions: Chinese hamster, Chinese Hamster Ovarian (CHO) cells
[10] = test system: Chinese Hamster Ovarian (CHO) cells; test: In vitro cytotoxicity, MTT assay; conditions: CHO IC50/PfNF54 IC50
[11] = In vitro microsomal metabolic stability, rat; type: in vitro ADME; conditions: male, Sprague Dawley, rat liver microsomes, pH 7.4, read-out: CLint,app (r)
[12] = Plasmodium falciparum, NF54, read-out: Pf IC50 ± SD NF54, asexual blood stage
[13] = Plasmodium falciparum, K1, read-out: Pf IC50 ± SD K1, asexual blood stage
[14] = read-out: Pf IC50 ± SD K1, asexual blood stage

Row | IC50 [1] | IC50 [3, 12] [nM] | IC50 [4, 13] [nM] | IC50 [5] [nM] | SMILES | further results
1 | 13000 ± 2000 nM | 220 ± 30 | 590 ± 40 | – | Cc1cnc(N)c(/C=C/c2cncc(C(=O)NCCc3ccc(Cl)cc3Cl)c2)c1 [Compound 4] | free heme, dose response [2]: dose-dependent increase in free heme; hemozoin, dose response [2]: decrease in hemozoin
2 | 18400 ± 200 nM | 2600 ± 1470 | – | – | Cc1ccc(N)c(/C=C/c2cncc(C(=O)NCCc3ccc(Cl)cc3Cl)c2)c1 [Compound 5] | –
3 | 26000 ± 7000 nM | 1180 ± 380 | – | – | Cc1cncc(/C=C/c2cncc(C(=O)NCCc3ccc(Cl)cc3Cl)c2)c1 [Compound 6] | –
4 | 17900 ± 200 nM | 340 ± 240 | 960 ± 390 | 5470 ± 540 | Nc1ncccc1/C=C/c1cncc(C(=O)NCCc2ccc(Cl)cc2Cl)c1 [Compound 7] | –
5 | – | 510 ± 420 | – | 2210 ± 1160 | Nc1ccc(/C=C/c2cncc(C(=O)NCCc3ccc(Cl)cc3Cl)c2)cn1 [Compound 8] | –
6 | – | 480 ± 260 | > 6000 | – | Nc1cncc(/C=C/c2cncc(C(=O)NCCc3ccc(Cl)cc3Cl)c2)c1 [Compound 9] | –
7 | 15900 ± 100 nM | 2630 ± 2270 | – | – | O=C(NCCc1ccc(Cl)cc1Cl)c1cncc(/C=C/c2cccnc2)c1 [Compound 10] | –
8 | 22000 ± 2000 nM | 4280 | – | – | O=C(NCCc1ccc(Cl)cc1Cl)c1cncc(/C=C/c2ccccc2)c1 [Compound 11] | IC50 ([3]; read-out: Pf IC50 ± SD NF54, asexual blood stage): 4820 ± 1550 nM
9 | – | 140 | – | 920 ± 50 | Nc1ccncc1/C=C/c1cncc(C(=O)NCCc2ccc(Cl)cc2Cl)c1 [Compound 12] | –
10 | – | 480 ± 350 | – | 1400 ± 50 | Nc1ncncc1/C=C/c1cncc(C(=O)NCCc2ccc(Cl)cc2Cl)c1 [Compound 13] | –
11 | 15000 ± 2000 nM | – | < 1000 | – | Cc1cnc(N)c(/C=C/c2cncc(C(=O)NCCc3ccc(Cl)cc3)c2)c1 [Compound 18] | IC50 [4, 14]: 720 ± 430 nM
12 | – | 320 ± 60 | < 1000 | < 1000 | Cc1cnc(N)c(/C=C/c2cncc(C(=O)NCCc3ccccc3)c2)c1 [Compound 19] | IC50 [4, 14]: 580 ± 160 nM
13 | – | 160 ± 70 | 250 ± 120 | 190 ± 110 | Cc1cnc(N)c(/C=C/c2cncc(C(=O)NCc3ccc(Cl)cc3Cl)c2)c1 [Compound 20] | –
14 | < 10000 nM and 5000 nM | 90 | 460 ± 170 | – | Cc1cnc(N)c(/C=C/c2cncc(C(=O)NCc3cc(Cl)cc(Cl)c3)c2)c1 [Compound 21] | –
15 | < 10000 nM and 8000 nM | 200 ± 60 | – | 350 ± 50 | Cc1cnc(N)c(/C=C/c2cncc(C(=O)Nc3ccc(Cl)cc3Cl)c2)c1 [Compound 22] | –
16 | – | 140 ± 20 | – | 190 | Cc1cnc(N)c(/C=C/c2cncc(C(=O)Nc3ccc(Cl)cc3)c2)c1 [Compound 23] | solubility thermodynamic at 20 h [6]: < 5 µM; CLint scaled at 1 µM [7]: 153 mL/min/kg; CLint scaled at 1 µM [8]: 64 mL/min/kg; IC50 [9]: 21000 nM; selectivity index [SI] [10]: 150; CLint scaled at 1 µM [11]: 62 mL/min/kg
17 | 62000 ± 5000 nM | 2060 ± 690 | – | – | Cc1cnc(N)c(/C=C/c2cncc(C(=O)NCCc3ccncc3)c2)c1 [Compound 24] | –
18 | 232000 ± 27000 nM | > 6000 | – | – | Cc1cnc(N)c(/C=C/c2cncc(C(=O)NCCC3CCNCC3)c2)c1 [Compound 25] | –
19 | 27000 ± 7000 nM | 780 ± 30 | – | 3190 ± 380 | Cc1cnc(N)c(/C=C/c2cccc(C(=O)NCCc3ccc(Cl)cc3Cl)n2)c1 [Compound 26] | –
20 | 13000 ± 4000 nM | 620 ± 70 | 1650 ± 270 | – | Cc1cnc(N)c(/C=C/c2cccc(C(=O)NCCc3ccc(Cl)cc3Cl)c2)c1 [Compound 27] | –
21 | 18000 ± 7000 nM | 590 ± 350 | – | 2360 ± 400 | Cc1cnc(N)c(/C=C/c2cscc2C(=O)NCCc2ccc(Cl)cc2Cl)c1 [Compound 28] | –
